# In patent US20260114449A1, “CONCENTRATED ANTIMICROBIAL SOLUTIONS CONTAINING SPARINGLY SOLUBLE ANTIMICROBIAL AGENTS” (Virox Technologies Inc., priority 2023, published 2026):
# Experiment: Solubility of salicylic acid in concentrated solution
# Format: physicochemical
# Description: Solutions 18-22 consisting of a solvent (Tamisolve NxG), a sparingly soluble antimicrobial agent (salicylic acid), and an antimicrobial surfactant (Biosoft S-101 LS) were prepared and are summarized in Table 3.
# Solution 42 was prepared and visually inspected at the time of preparation, after 24 hours of storage at room temperature, and after one cycle of freezing and thawing.
smiles,measurement,setting,value
"O=C(O)c1ccccc1O [salicylic acid, Salicylic acid]",amount of salicylic acid effectively solubilized,"Solution 42: Tamisolve NxG 35 wt. %, Biosoft S-101 LS 45 wt. %",20 wt. %
same,maximum amount of salicylic acid that was solubilized,Table 3 solutions: Tamisolve NxG 23.54 wt. % plus Biosoft S-101 LS,13 wt. %
same,solubility of salicylic acid relative to its solubility in water,in Solution 42,about 83 times
